# Experimental data as given in patent publication US20260285880A1, “SUBSTITUTED DIHYDROTHIENOPYRIMIDINE COMPOUND, PREPARATION METHOD THEREFOR, AND USE THEREOF” (SHANGHAI YIDI BIOTECHNOLOGY CO., LTD., priority 2023, published 2026).
# Biological target: Flpin-293-PDE4B2 cells (Homo sapiens, UniProt Q07343)
# Test: cell-based
# Details: read-out: Cell Inhibition % @1 nM, 1 nM, Flpin-293-PDE4B2 cells
# Flpin-293-PDE4B2 cells, sequence (Q07343 1-564 isoform Q07343-2): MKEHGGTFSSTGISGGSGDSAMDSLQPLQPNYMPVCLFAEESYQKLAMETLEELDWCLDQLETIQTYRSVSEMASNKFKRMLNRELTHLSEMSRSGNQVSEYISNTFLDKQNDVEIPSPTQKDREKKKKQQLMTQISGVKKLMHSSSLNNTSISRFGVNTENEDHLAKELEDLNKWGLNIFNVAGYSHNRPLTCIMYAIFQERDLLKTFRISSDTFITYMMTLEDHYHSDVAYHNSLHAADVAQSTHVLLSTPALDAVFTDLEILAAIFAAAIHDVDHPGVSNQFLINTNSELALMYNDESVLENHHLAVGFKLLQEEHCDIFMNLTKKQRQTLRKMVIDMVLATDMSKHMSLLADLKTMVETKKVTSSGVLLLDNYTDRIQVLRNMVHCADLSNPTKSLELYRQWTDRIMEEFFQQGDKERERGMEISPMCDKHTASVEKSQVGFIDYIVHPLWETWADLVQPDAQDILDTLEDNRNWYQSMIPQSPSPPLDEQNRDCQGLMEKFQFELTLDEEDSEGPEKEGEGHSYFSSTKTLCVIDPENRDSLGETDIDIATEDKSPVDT
row,SMILES,inhibition at 0.001 µM [%]
1,[O-][S+]1CCc2nc(N3CCc4cc(N5CCCC5)ccc4C3)nc(NC3(CO)CC3)c21 (stereo not drawn) [Compound 186],24.7
2,CN1C[C@@H](Nc2nc(N3CCc4cc(N5CCCC5)ccc4C3)nc3c2[S+]([O-])CC3)CCC1=O (stereo partly drawn) [Compound 185],75.3
3,[O-][S+]1CCc2nc(N3CCc4cc(N5CCCC5)ccc4C3)nc(N3CCC[C@H]3CO)c21 (stereo partly drawn) [Compound 188],8.72
4,[O-][S+]1CCc2nc(N3CCc4cc(N5CC[C@@H](F)C5)ccc4C3)nc(NC3(CO)CCC3)c21 (stereo partly drawn) [Compound 150],11.8
5,CO[C@H]1CCN(c2ccc3c(c2)CCN(c2nc4c(c(NC5(CO)CCC5)n2)[S+]([O-])CC4)C3)C1 (stereo partly drawn) [Compound 151],7.66
6,[O-][S+]1CCc2nc(N3CCc4cc(N5CCCC5)ccc4C3)nc(Nc3cnn(CCO)c3)c21 (stereo not drawn) [Compound 191],8.9
7,[O-][S+]1CCc2nc(N3CCc4cc(N5CCCC5)ccc4C3)nc(NC3CCOCC3)c21 (stereo not drawn) [Compound 189],24.4
8,[O-][S+]1CCc2nc(N3CCc4cc(N5CCC(C(F)(F)F)C5)ccc4C3)nc(NC3(CO)CCC3)c21 (stereo not drawn) [Compound 156],1.42
9,C[C@H]1Cc2cc(Cl)ccc2CN1c1nc2c(c(NC3(CO)CCC3)n1)[S+]([O-])CC2 (stereo partly drawn) [Compound 122],5.4

# Same assay, conditions: read-out: Cell Inhibition % @10 nM, 10 nM, Flpin-293-PDE4B2 cells
row,SMILES,inhibition at 0.01 µM [%]
1,[O-][S+]1CCc2nc(N3CCc4cc(N5CCCC5)ccc4C3)nc(NC3(CO)CC3)c21 (stereo not drawn) [Compound 186],93.2
2,CN1C[C@@H](Nc2nc(N3CCc4cc(N5CCCC5)ccc4C3)nc3c2[S+]([O-])CC3)CCC1=O (stereo partly drawn) [Compound 185],100
3,[O-][S+]1CCc2nc(N3CCc4cc(N5CCCC5)ccc4C3)nc(N3CCC[C@H]3CO)c21 (stereo partly drawn) [Compound 188],39.6
4,[O-][S+]1CCc2nc(N3CCc4cc(N5CC[C@@H](F)C5)ccc4C3)nc(NC3(CO)CCC3)c21 (stereo partly drawn) [Compound 150],49.6
5,CO[C@H]1CCN(c2ccc3c(c2)CCN(c2nc4c(c(NC5(CO)CCC5)n2)[S+]([O-])CC4)C3)C1 (stereo partly drawn) [Compound 151],56.5
6,[O-][S+]1CCc2nc(N3CCc4cc(N5CCCC5)ccc4C3)nc(Nc3cnn(CCO)c3)c21 (stereo not drawn) [Compound 191],35.2
7,[O-][S+]1CCc2nc(N3CCc4cc(N5CCCC5)ccc4C3)nc(NC3CCOCC3)c21 (stereo not drawn) [Compound 189],93.5
8,[O-][S+]1CCc2nc(N3CCc4cc(N5CCC(C(F)(F)F)C5)ccc4C3)nc(NC3(CO)CCC3)c21 (stereo not drawn) [Compound 156],25.7
9,C[C@H]1Cc2cc(Cl)ccc2CN1c1nc2c(c(NC3(CO)CCC3)n1)[S+]([O-])CC2 (stereo partly drawn) [Compound 122],49.9

# Same assay, conditions: read-out: Cell Inhibition % @100 nM, 100 nM, Flpin-293-PDE4B2 cells
row,SMILES,inhibition at 0.1 µM [%]
1,[O-][S+]1CCc2nc(N3CCc4cc(N5CCCC5)ccc4C3)nc(NC3(CO)CC3)c21 (stereo not drawn) [Compound 186],101
2,CN1C[C@@H](Nc2nc(N3CCc4cc(N5CCCC5)ccc4C3)nc3c2[S+]([O-])CC3)CCC1=O (stereo partly drawn) [Compound 185],101
3,[O-][S+]1CCc2nc(N3CCc4cc(N5CCCC5)ccc4C3)nc(N3CCC[C@H]3CO)c21 (stereo partly drawn) [Compound 188],96.6
4,[O-][S+]1CCc2nc(N3CCc4cc(N5CC[C@@H](F)C5)ccc4C3)nc(NC3(CO)CCC3)c21 (stereo partly drawn) [Compound 150],97.5
5,CO[C@H]1CCN(c2ccc3c(c2)CCN(c2nc4c(c(NC5(CO)CCC5)n2)[S+]([O-])CC4)C3)C1 (stereo partly drawn) [Compound 151],99.1
6,[O-][S+]1CCc2nc(N3CCc4cc(N5CCCC5)ccc4C3)nc(Nc3cnn(CCO)c3)c21 (stereo not drawn) [Compound 191],94.3
7,[O-][S+]1CCc2nc(N3CCc4cc(N5CCCC5)ccc4C3)nc(NC3CCOCC3)c21 (stereo not drawn) [Compound 189],101
8,[O-][S+]1CCc2nc(N3CCc4cc(N5CCC(C(F)(F)F)C5)ccc4C3)nc(NC3(CO)CCC3)c21 (stereo not drawn) [Compound 156],91.7
9,C[C@H]1Cc2cc(Cl)ccc2CN1c1nc2c(c(NC3(CO)CCC3)n1)[S+]([O-])CC2 (stereo partly drawn) [Compound 122],96.8

# Biological target: PDE4B2 (Homo sapiens, UniProt Q07343)
# Test: not given
# Details: read-out: PDE4B2 IC50; enzyme assay
# PDE4B2, sequence (Q07343 1-564 isoform Q07343-2, species assumed): as the sequence (Q07343 1-564 isoform Q07343-2) above
row,SMILES,IC50 [nM]
1,[O-][S+]1CCc2nc(N3CCc4cc(N5CCCC5)ccc4C3)nc(NC3(CO)CC3)c21 (stereo not drawn) [Compound 186],0.0646
2,CN1C[C@@H](Nc2nc(N3CCc4cc(N5CCCC5)ccc4C3)nc3c2[S+]([O-])CC3)CCC1=O (stereo partly drawn) [Compound 185],0.0251
3,[O-][S+]1CCc2nc(N3CCc4cc(N5CCCC5)ccc4C3)nc(N3CCC[C@H]3CO)c21 (stereo partly drawn) [Compound 188],0.387
4,[O-][S+]1CCc2nc(N3CCc4cc(N5CC[C@@H](F)C5)ccc4C3)nc(NC3(CO)CCC3)c21 (stereo partly drawn) [Compound 150],0.418
5,CO[C@H]1CCN(c2ccc3c(c2)CCN(c2nc4c(c(NC5(CO)CCC5)n2)[S+]([O-])CC4)C3)C1 (stereo partly drawn) [Compound 151],0.298
6,[O-][S+]1CCc2nc(N3CCc4cc(N5CCCC5)ccc4C3)nc(Nc3cnn(CCO)c3)c21 (stereo not drawn) [Compound 191],0.182
7,[O-][S+]1CCc2nc(N3CCc4cc(N5CCCC5)ccc4C3)nc(NC3CCOCC3)c21 (stereo not drawn) [Compound 189],0.066
8,[O-][S+]1CCc2nc(N3CCc4cc(N5CCC(C(F)(F)F)C5)ccc4C3)nc(NC3(CO)CCC3)c21 (stereo not drawn) [Compound 156],1.26
9,C[C@H]1Cc2cc(Cl)ccc2CN1c1nc2c(c(NC3(CO)CCC3)n1)[S+]([O-])CC2 (stereo partly drawn) [Compound 122],0.838

# Biological target: PDE4D2 (Homo sapiens, UniProt Q08499)
# Test: PDE4D2 enzyme experiment (AMP-Glo)
# Details: read-out: PDE4D2 IC50 Binding; enzyme assay
# PDE4D2, sequence (Q08499 303-809 limits assumed): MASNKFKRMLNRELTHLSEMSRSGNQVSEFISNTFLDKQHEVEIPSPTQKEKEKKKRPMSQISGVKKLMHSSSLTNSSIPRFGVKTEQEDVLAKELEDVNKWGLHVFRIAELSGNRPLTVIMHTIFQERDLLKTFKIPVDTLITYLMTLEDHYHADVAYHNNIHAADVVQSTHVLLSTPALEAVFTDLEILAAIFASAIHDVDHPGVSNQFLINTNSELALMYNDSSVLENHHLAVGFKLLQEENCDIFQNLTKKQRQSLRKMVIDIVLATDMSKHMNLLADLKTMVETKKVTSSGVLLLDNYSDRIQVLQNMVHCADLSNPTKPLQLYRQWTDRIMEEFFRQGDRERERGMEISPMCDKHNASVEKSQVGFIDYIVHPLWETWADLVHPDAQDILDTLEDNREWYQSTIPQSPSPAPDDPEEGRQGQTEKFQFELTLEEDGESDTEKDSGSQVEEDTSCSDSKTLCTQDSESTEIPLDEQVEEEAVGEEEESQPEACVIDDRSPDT
row,SMILES,IC50 [nM]
1,[O-][S+]1CCc2nc(N3CCc4cc(N5CCCC5)ccc4C3)nc(NC3(CO)CC3)c21 (stereo not drawn) [Compound 186],0.155
2,CN1C[C@@H](Nc2nc(N3CCc4cc(N5CCCC5)ccc4C3)nc3c2[S+]([O-])CC3)CCC1=O (stereo partly drawn) [Compound 185],0.0263
3,[O-][S+]1CCc2nc(N3CCc4cc(N5CCCC5)ccc4C3)nc(N3CCC[C@H]3CO)c21 (stereo partly drawn) [Compound 188],0.73
4,[O-][S+]1CCc2nc(N3CCc4cc(N5CC[C@@H](F)C5)ccc4C3)nc(NC3(CO)CCC3)c21 (stereo partly drawn) [Compound 150],0.694
5,CO[C@H]1CCN(c2ccc3c(c2)CCN(c2nc4c(c(NC5(CO)CCC5)n2)[S+]([O-])CC4)C3)C1 (stereo partly drawn) [Compound 151],0.655
6,[O-][S+]1CCc2nc(N3CCc4cc(N5CCCC5)ccc4C3)nc(Nc3cnn(CCO)c3)c21 (stereo not drawn) [Compound 191],0.851
7,[O-][S+]1CCc2nc(N3CCc4cc(N5CCCC5)ccc4C3)nc(NC3CCOCC3)c21 (stereo not drawn) [Compound 189],0.145
8,[O-][S+]1CCc2nc(N3CCc4cc(N5CCC(C(F)(F)F)C5)ccc4C3)nc(NC3(CO)CCC3)c21 (stereo not drawn) [Compound 156],1.76
9,C[C@H]1Cc2cc(Cl)ccc2CN1c1nc2c(c(NC3(CO)CCC3)n1)[S+]([O-])CC2 (stereo partly drawn) [Compound 122],2.04
